Assays:
Assay type in all cases: cell-based
[1] = system: TT cells (human medullary thyroid carcinoma cells); experiment: alamarBlue proliferation assay with TT cells; details: for activity at 40 µM: Homo sapiens, 120 h, relative to DMSO basis level 1.0, read-out: weighted arithmetic mean (AVEw) of normalized fluorescence intensity, activity range
Method: The antiproliferative activities of compounds falling under formula I, formula II, formula III, formula IV and formula V were investigated on cells or cell lines originating from a disorder of the myeloid cell compartment, the neuroendocrine system, the cervix, and the mucosal epithelium, as well as from the skin epithelium. To this end, HL-60 cells, TT cells, HeLa cells, CAL-27 cells and human primary epidermal keratinocytes (HPEK) were seeded into 96-well plates suitable for fluorescence assays (CORNING #3598) at following initial cell numbers: 1000 cells per well for HL-60; 9000 cells per well for TT; 2000 cells per well for HeLa, 2000 cells per well for CAL-27, 2000 cells per well for HPEK. The cells were treated with compounds at indicated final concentrations (diluted from the 1000× stock-solutions in DMSO to a final DMSO concentration of 0.1% v/v) or with the empty carrier DMSO at 0.1% v/v as control for 5 days. At day 5 after starting the treatments the cells were subjected to the alamarBlue® Proliferation Assay (Bio-Rad Serotec GmbH, BUF012B) according to the protocol of the manufacturer. The readout was taken with a multi-well plate-reader in the fluorescence mode with applying a filter for excitation at 560 nm (band width 10 nm) and for emission at 590 nm (band width 10 nm). Resveratrol (RES) treatment was included as control for growth inhibition.
The assays were performed in duplicate or more replicates of independent single experiments each containing a six-fold replicate for every condition. For every individual plate, the measured fluorescence intensity values of the conditions with compound treatment were normalized against the corresponding equally weighted arithmetic mean of the fluorescence intensity values of the six DMSO treated control wells in order to obtain the relative values to a baseline level of 1.0. The statistical calculations were performed in analogy to the luciferase assay as described above. To this end, two independent outlier analyses were performed according to the methods by Peirce and Chauvenet (Ross, Journal of Engineering Technology 2003, 1-12). Outliers confirmed by at least one of the methods were excluded from the calculations but not more than one value out of six per compound within a single experiment. The weighted arithmetic mean AVEw for each compound was calculated from the normalized values over all independent replicates of the single experiments comprising the six replicates each. The corresponding standard deviation for the weighted arithmetic mean was calculated according to the method described by Bronstein et al. (Bronstein, Semendjajew, Musiol, Mühlig, Taschenbuch der Mathematik, 5th edition 2001 (German), publisher: Verlag Harri Deutsch, Frankfurt am Main and Thun) and was combined with the Gauß′ error propagation associated with the performed calculation for the normalization. The resulting standard deviation is herein referred to as “combined standard deviation”.
TT cells were cultivated according to the protocol of the provider in F-12K medium (Fisherscientific, #11580556, or ATCC, #ATCC-30-2004) containing 10% fetal bovine serum (Fisherscientific, #15517589).
A compound is considered as a growth inhibitor of TT cells, if—at a reference concentration of 40 μM—the weighted arithmetic mean of the normalized fluorescence intensity values after addition of the corresponding combined standard deviation amounts to 0.9 or lower, in particular to 0.8 or lower, 0.7 or lower, 0.6 or lower, 0.4 or lower, and 0.2 or lower, relative to the overall basis level of 1.0. The overall basis level was calculated as the weighted arithmetic mean of all normalized values from the DMSO control measurements in analogy to the calculations performed for the test-compounds. The corresponding combined standard deviation for the DMSO values amounts to less than 1·10^−2.

[2] = system: HL-60 cells (human acute myeloid leukemia cells); experiment: alamarBlue proliferation assay with HL-60 cells; details: 120 h, 5 days, relative to DMSO baseline level of 1.0, read-out: AVEw, weighted arithmetic mean of normalized fluorescence intensity values (Activity Range), HL-60 proliferation
In short: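 HL-60 cells (1000/well, RPMI 1640 + 10% FBS) exposed to compound in 0.1% DMSO for 5 days, then alamarBlue fluorescence read (ex 560/em 590 nm). Signals normalized to six DMSO wells per plate (baseline 1.0); outliers removed by Peirce/Chauvenet; weighted mean with combined SD; inhibitor criterion judged at 20 μM reference concentration.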

[3] = system: CAL-27 cells (human tongue squamous cell carcinoma cells); experiment: alamarBlue proliferation assay with CAL-27 cells; details: for activity at 40 µM / activity at 20 µM: Homo sapiens, 120 h; for activity at 40 µM: relative to DMSO basis level 1.0, read-out: weighted arithmetic mean (AVEw) of normalized fluorescence intensity, activity range; for activity at 20 µM: relative to DMSO baseline level of 1.0, read-out: AVEw, weighted arithmetic mean of normalized fluorescence intensity values (Activity Range), CAL-27 proliferation
In short: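 CAL-27 cells seeded at 2000 per well, exposed to compound in 0.1% DMSO for 5 days, then alamarBlue fluorescence (ex 560/em 590 nm). Values normalized to DMSO wells (1.0) as weighted means with combined standard deviation; growth inhibition judged at 20 μM reference concentration.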

[4] = control RES at 20 μM, relative to DMSO basis level 1.0

Row | Compound | activity at 40 µM [1] | activity at 20 µM [2] | activity at 40 µM [3] | activity at 20 µM ([3]; 5 days) | weighted arithmetic mean (AVEw) of normalized fluorescence intensity [1, 4] | AVEw, weighted arithmetic mean of normalized fluorescence intensity values, CAL-27 proliferation ([3]; 40 μM (control RES 40 μM), 5 days, relative to DMSO baseline level of 1.0) | weighted arithmetic mean (AVEw) of normalized fluorescence intensity [3, 4]
1 | NC(=O)c1ccc(Oc2ccc(C3CC4CCC3C4)cc2)cc1 (racemic) [Compound 159, (±)-4-(4-(Bicyclo[2.2.1]heptan-2-yl)phenoxy)benzamide] | 80 to 90% | 40 to 60% | 60 to 70% | – | – | – | –
2 | CCCc1ccc(Oc2ccc(C(=O)NO)cc2)cc1 [Compound 166, N-hydroxy-4-(4-propylphenoxy)benzamide] | 20 to 40% | 0 to 20% | 0 to 20% | 20 to 40% | – | – | –
3 | CCC(C)(C)c1ccc(Oc2ccc(C(=O)NO)cc2)cc1 [Compound 171, N-hydroxy-4-(4-(tert-pentyl)phenoxy)benzamide] | 20 to 40% | 0 to 20% | – | 0 to 20% | – | – | –
4 | O=C(NO)c1ccc(Oc2ccc(C3CCCCC3)cc2)cc1 [Compound 182, 4-(4-cyclohexylphenoxy)-N-hydroxybenzamide] | 20 to 40% | 0 to 20% | – | 20 to 40% | – | – | –
5 | O=C(NO)c1ccc(Oc2ccc(C34CC5CC(CC(C5)C3)C4)cc2)cc1 [Compound 186, 4-(4-(Adamantan-1-yl)phenoxy)-N-hydroxybenzamide] | 20 to 40% | 0 to 20% | – | 0 to 20% | – | – | –
6 | CC(C)c1ccc(Oc2ccc(C(=O)NO)cn2)cc1 [Compound 272, N-hydroxy-6-(4-isopropylphenoxy)nicotinamide] | 0 to 20% | 0 to 20% | 0 to 20% | 0 to 20% | – | – | –
7 | CCC(C)(C)c1ccc(Oc2ccc(C(=O)NO)cn2)cc1 [Compound 273, N-hydroxy-6-(4-(tert-pentyl)phenoxy)nicotinamide] | – | 0 to 20% | – | 0 to 20% | – | – | –
8 | O=C(NO)c1ccc(Oc2ccc(C3CCCCC3)cc2)nc1 [Compound 284, 6-(4-Cyclohexylphenoxy)-N-hydroxynicotinamide] | 0 to 20% | 0 to 20% | – | 0 to 20% | – | – | –
9 | O=C(NO)c1ccc(Oc2ccc(C3CC4CCC3CC4)cc2)nc1 (stereo not drawn) [Compound 287, 6-(4-((1s,4s)-bicyclo[2.2.2]octan-2-yl)phenoxy)-N-hydroxynicotinamide] | 20 to 40% | 0 to 20% | 0 to 20% | 20 to 40% | – | – | –
10 | O=C(NO)c1ccc(Oc2ccc(C34CC5CC(CC(C5)C3)C4)cc2)nc1 [Compound 288, 6-(4-((3r,5r,7r)-adamantan-1-yl)phenoxy)-N-hydroxynicotinamide] | 0 to 20% | 0 to 20% | – | 20 to 40% | – | – | –
11 | CNC(=O)c1ccc(Oc2ccc(C(F)(F)F)cc2)nc1 [Compound 300, N-methyl-6-(4-(trifluoromethyl)phenoxy)nicotinamide] | – | 80 to 90% | 80 to 90% | 80 to 90% | – | – | –
12 | CN(C)C(=O)c1ccc(Oc2ccc(C3CCCCC3)cc2)nc1 [Compound 334, 6-(4-cyclohexylphenoxy)-N,N-dimethylnicotinamide] | 80 to 90% | 60 to 70% | 80 to 90% | – | – | – | –
13 | O=C(NO)c1ccc(Oc2ccc(C34CC5CC(CC(C5)C3)C4)cc2)c(F)c1 [Compound 544, 4-(4-(Adamantan-1-yl)phenoxy)-3-fluoro-N-hydroxybenzamide] | 20 to 40% | 0 to 20% | – | 0 to 20% | – | – | –
14 | O=C(NO)c1cnc(Oc2ccc(C3CCCCC3)cc2)c(F)c1 [Compound 644, 6-(4-Cyclohexylphenoxy)-5-fluoro-N-hydroxynicotinamide] | 20 to 40% | 0 to 20% | – | 0 to 20% | – | – | –
15 | Oc1ccc(C=Cc2cc(O)cc(O)c2)cc1 [RES, resveratrol, reference compound] | 80% | 40% | 50% | 90% | 0.9 ± 0.0 | 0.4 ± 0.0 | 0.9 ± 0.0
